Results: PMC12735688, “Discovery and Activity Evaluation of Novel Dibenzoxazepinone Derivatives as Glycogen Phosphorylase Inhibitors” (Molecules, 2025)
Counter-ions that a name gives are not always drawn. Like-named read-outs stand apart in the source and are kept apart here.

Experiments:
[1] = biological target: T1, rabbit muscle glycogen phosphorylase a (RMGPa) (Oryctolagus cuniculus, UniProt P00489); design: method as in PMID 33906369; details: previously reported parent compound; read-out: IC50 (RMGPa inhibition) of parent compound; cited from earlier work
T1 construct: purchased
T1 sequence (P00489 2-843 limits assumed): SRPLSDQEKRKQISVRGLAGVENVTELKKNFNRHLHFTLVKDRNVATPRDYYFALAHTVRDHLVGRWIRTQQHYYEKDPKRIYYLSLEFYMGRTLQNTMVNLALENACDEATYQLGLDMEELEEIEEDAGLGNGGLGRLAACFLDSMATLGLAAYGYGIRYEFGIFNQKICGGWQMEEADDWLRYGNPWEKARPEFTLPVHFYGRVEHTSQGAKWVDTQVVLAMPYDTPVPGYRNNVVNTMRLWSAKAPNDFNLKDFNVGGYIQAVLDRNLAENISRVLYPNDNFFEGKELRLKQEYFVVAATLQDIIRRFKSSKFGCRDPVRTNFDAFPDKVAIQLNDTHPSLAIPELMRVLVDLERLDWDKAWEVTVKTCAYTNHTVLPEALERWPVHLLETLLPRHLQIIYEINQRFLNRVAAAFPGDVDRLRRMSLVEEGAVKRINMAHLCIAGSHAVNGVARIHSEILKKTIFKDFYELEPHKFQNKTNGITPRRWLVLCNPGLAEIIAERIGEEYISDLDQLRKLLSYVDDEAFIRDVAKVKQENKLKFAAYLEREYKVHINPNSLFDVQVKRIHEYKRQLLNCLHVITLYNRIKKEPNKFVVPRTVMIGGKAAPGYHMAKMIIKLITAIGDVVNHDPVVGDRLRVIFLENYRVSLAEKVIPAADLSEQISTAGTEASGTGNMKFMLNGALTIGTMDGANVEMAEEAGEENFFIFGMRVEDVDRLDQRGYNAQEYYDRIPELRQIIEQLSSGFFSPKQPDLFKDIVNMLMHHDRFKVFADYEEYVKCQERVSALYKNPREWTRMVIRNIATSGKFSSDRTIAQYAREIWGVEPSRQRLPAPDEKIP

[2] = biological target: T1, rabbit muscle glycogen phosphorylase a (RMGPa); assay: RMGPa enzyme inhibition assay (phosphate release, malachite green); assay type: biochemical; details: mean ± S.D. of three determinations; NI means no inhibition
Procedure: The synthesized compounds were evaluated in an enzyme inhibition assay against rabbit muscle glycogen phosphorylase a (RMGPa), a commercially available enzyme that shares considerable sequence similarity with human liver GPa. As described previously, the activity of RMGPa was measured by detecting the release of phosphate from glucose-1-phosphate in the direction of glycogen synthesis. PSN-357, a GP inhibitor in clinical Phase II, was used as positive control.
The inhibitory activity of the test compounds against RMGPa was evaluated using a microplate reader (Bio-Rad Laboratories, Berkeley, CA, USA), based on the release of inorganic phosphate during glycogenolysis. First, the test compounds were dissolved in DMSO and diluted to various concentrations for IC50 determination. A 100 μL aliquot of buffer, containing 50 mM Hepes (pH = 7.2), 100 mM potassium chloride (KCl), 2.5 mM magnesium chloride (MgCl2), 0.5 mM glucose-1-phosphate, 1 mg/mL glycogen, and the test compound solution, was added to a 96-well Costar microplate (Corning Inc., New York, NY, USA). The reaction mixture was incubated at 22 °C for 25 min, after which 150 μL of solution containing 10 mg/mL ammonium molybdate and 0.38 mg/mL malachite green was added to stop the reaction. The absorbance of phosphate was measured at 620 nm. IC50 values were determined by fitting the inhibition data to a dose–response curve using a logistic derivative equation.

[3] = system: hyperglycemic mice induced by adrenaline; assay: Acute hypoglycemic experiment in adrenaline-induced hyperglycemic mice; assay type: in vivo, C57BL/6J mice; details: 400 mg/kg single oral dose, about 2 h after administration; model group 8.91 ± 0.69; p < 0.01; mean ± SEM
Procedure: First, its ability was investigated by oral administration with one dose of 0.5% CMC-NA (model group) or compound Id at different concentrations (12.5, 25 and 50 mg/kg) for treatment. Metformin (400 mg/kg) was selected as a positive control.
The animal experiments were conducted following the method described in reference. Male C57BL/6J mice (6–8 weeks old, 18–20 g) were obtained from Beijing Huafukang Biotechnology Co., Ltd. (Beijing, China), maintained under standard conditions (food/water ad libitum), and acclimatized for 1 week. After acclimatization, baseline blood glucose was measured via tail vein sampling. Subsequently, mice were randomized into 6 groups (10/group) by blood glucose/body weight, with no significant differences in initial blood glucose (mean ± SEM). Post-grouping, daily oral 0.5% CMC-Na (as vehicle) was given. On the night before the experimental day, mice were fasted overnight with free access to water. On the experimental day, mice were orally administered Compound Id (50, 25, 12.5 mg/kg), metformin (400 mg/kg, as positive control), or 0.5% CMC-Na, followed by subcutaneous 0.2 mg/kg adrenaline to induce hyperglycemia. Finally, blood glucose was measured/recorded at 0, 30, 60, 90, and 120 min post-administration via JPS-5 meter.

Row | IC50 [2] | Compound | further results
1 | – | O=C1CCOc2ccc(NC(=O)c3cc4cc(Cl)ccc4[nH]3)cc2N1 [Compound 1] | IC50 [1]: 250 ± 50 nM
2 | 723 ± 82 nM | O=C(Nc1ccc2c(c1)NC(=O)c1ccc(C(F)(F)F)cc1O2)c1cc2cc(O)ccc2[nH]1 [IIb] | –
3 | 1790 ± 104 nM | COc1cnc2[nH]c(C(=O)Nc3ccc4c(c3)NC(=O)c3ccc(C(F)(F)F)cc3O4)cc2c1 [IId] | –
4 | – | CN(C)C(=N)N=C(N)N [Metformin, Metformin hydrochloride, reference compound] | blood glucose [3]: 6.57 ± 0.71 mmol/L
5 | 338 ± 55 nM | Cc1ccc2[nH]c(C(=O)Nc3ccc4c(c3)NC(=O)c3ccc(C(F)(F)F)cc3O4)cc2c1 [IIf] | –
6 | 2180 ± 156 nM | CCCc1cc(OC)c2c(c1)C(=O)Nc1cc(NC(=O)c3cc4cc(Cl)ccc4[nH]3)ccc1O2 [Ie, 5-chloro-N-(3-methoxy-11-oxo-5-propyl-10,11-dihydrodibenzo[b,f][1,4]oxazepin-8-yl)-1H-indole-2-carboxamide] | –
7 | 840 ± 50 nM | COc1ccc2[nH]c(C(=O)Nc3ccc4c(c3)NC(=O)c3ccc(C(F)(F)F)cc3O4)cc2c1 [IIc] | –
